From patent US7202216B2 (The Board of Trustees of the Leland Stanford Junior …, priority 2002, dated 2007)
Where no end group is shown, it is not given here.

Tests used:
[1] = BBM fractions prepared from rat small intestinal mucosa
[2] = system: small intestinal brush-border membrane (BBM) enzymes; assay: Brush-border membrane (BBM) digestion of gliadin peptides; conditions: 12 ng/μl BBM protein, rat small intestinal mucosa
[3] = Amount of peptides digested after 15 hours (Table 1, samples H1P0-H5P0); type: in vitro ADME
[4] = system: gastric and pancreatic proteases (pepsin, trypsin, chymotrypsin, elastase, carboxypeptidase)
[5] = target: T1, tissue transglutaminase (tTGase) (Homo sapiens, UniProt P21980); conditions: vs natural substrate fibrinogen; cited from earlier work
T1 sequence (P21980 1-687): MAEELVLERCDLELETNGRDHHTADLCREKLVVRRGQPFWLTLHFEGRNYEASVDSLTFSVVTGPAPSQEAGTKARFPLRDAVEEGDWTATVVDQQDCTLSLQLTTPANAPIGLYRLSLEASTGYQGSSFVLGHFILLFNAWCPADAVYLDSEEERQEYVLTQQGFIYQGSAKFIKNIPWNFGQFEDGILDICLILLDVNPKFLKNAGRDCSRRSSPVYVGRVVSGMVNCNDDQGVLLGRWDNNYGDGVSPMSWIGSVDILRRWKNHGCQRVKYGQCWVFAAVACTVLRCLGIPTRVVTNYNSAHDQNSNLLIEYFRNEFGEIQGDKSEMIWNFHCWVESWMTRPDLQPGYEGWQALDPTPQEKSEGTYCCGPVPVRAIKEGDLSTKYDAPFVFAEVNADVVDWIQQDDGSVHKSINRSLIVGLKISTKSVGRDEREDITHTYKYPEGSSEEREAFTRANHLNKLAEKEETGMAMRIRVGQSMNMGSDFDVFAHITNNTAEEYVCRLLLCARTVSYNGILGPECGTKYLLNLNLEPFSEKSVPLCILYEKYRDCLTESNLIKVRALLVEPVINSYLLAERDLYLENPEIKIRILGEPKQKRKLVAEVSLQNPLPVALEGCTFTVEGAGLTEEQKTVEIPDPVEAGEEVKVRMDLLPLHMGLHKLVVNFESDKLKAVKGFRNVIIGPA

Sequence | not cleaved [1] | half-life of digestion [2] [h] | Amount of Peptides Digested after 15 hours ([3]; sample H1P0) [%] | Amount of Peptides Digested after 15 hours ([3]; sample H2P0) [%] | Amount of Peptides Digested after 15 hours ([3]; sample H3P0) [%] | Amount of Peptides Digested after 15 hours ([3]; sample H4P0) [%] | Amount of Peptides Digested after 15 hours ([3]; sample H5P0) [%] | stability on prolonged exposure to proteases [4] | specificity of tTGase relative to its target peptide sequence in fibrinogen [5] [fold]
LQLQPFPQPQLPYPQPQLPYPQPQLPYPQPQPF | half-life of digestion >20 h; remains intact | – | – | – | – | – | – | – | –
LQLQPFPQPQLPYPQPQLPYPQPQLPYPQPQPF [33-mer] | – | > 20 | <20 | <20 | <20 | <20 | <20 | remained intact | –
PQPQLPYPQPQLPY (listed as Triticum aestivum) [α-gliadin derived tTGase substrate peptide] | – | – | – | – | – | – | – | – | 5
QLQPFPQPQLPY [Control A] | – | – | >90 | >61 | >87 | >96 | >96 | – | –
WQIPEQSR [Control B] | – | – | >90 | >85 | >95 | >95 | >95 | – | –
